{"source": "patent US5827895A", "about": "“Hexahydrolupulones useful as anticancer agents” (Regents of the University of Minnesota, priority 1996, dated 1998)", "assay_in_all_cases": "microbe, parasite or virus in culture", "type_in_all_cases": "cell-based, M. tuberculosis", "key": {"[1]": {"tested_on": "Isoniazid and Rifampin Resistant TB", "settings": "Mycobacterium tuberculosis, read-out: inhibition of Isoniazid and Rifampin Resistant TB"}, "[2]": {"tested_on": "Isoniazid Resistant TB", "settings": "Mycobacterium tuberculosis, read-out: inhibition of Isoniazid Resistant TB growth"}, "[3]": {"tested_on": "Pyrazinamide Resistant TB", "settings": "Mycobacterium tuberculosis, read-out: inhibition of Pyrazinamide Resistant TB growth"}}, "data": [{"smiles": "CC(C)CCC1=C(O)C(C(=O)C(C)C)=C(O)C(CCC(C)C)(CCC(C)C)C1=O", "note": "[HHC, hexahydrocolupulone]", "values": [{"measurement": "inhibition at 75 µM", "setting": "[1]", "value": 92, "unit": "%"}, {"measurement": "inhibition at 75 µM", "setting": "[2]", "value": 91, "unit": "%"}, {"measurement": "inhibition at 75 µM", "setting": "[3]", "value": 98, "unit": "%"}]}]}
